Data taken from patent US8692014B2, “Acid addition salts of 5-aminolevulinic acid or its derivatives” (Photocure ASA, priority 2004, dated 2014).

How the values were obtained:
[1] = Hygroscopicity: water uptake and onset of deliquescence in closed chamber at 75-84% relative humidity; assay type: physicochemical; details: 75-84% relative humidity over saturated ammonium sulfate solution, ca. 25° C.; for appearance / deliquescence during the test period / water uptake as monitored by weight: in words
Protocol: (§1) Samples of methyl 5-amino-4-oxopentanoate hydrochloride, methanesulfonate, and toluenesulfonate were weighed and kept in 30 ml plastic cups in a closed chamber at 75-84% relative humidity over saturated ammonium sulfate solution at ambient temperature (ca. 25° C.). The samples were then weighed after different intervals of time to monitor water uptake. The appearance of the samples was also checked at the same time to determine the onset of deliquescence.
as §1, with “5-amino-4-oxopentanoic acid hydrochloride” for “methyl 5-amino-4-oxopentanoate hydrochloride, methanesulfonate,”, “75-84” for “75-84%”
as §1, with “hexyl” for “methyl”, “hydrochloride” for “hydrochloride, methanesulfonate,”

[2] = test system: mouse skin; assay: Skin fluorescence after topical application of cream formulations to nude mice (emission 550-750 nm); assay type: in vivo, Female Balb/c athymic nude mice; details: in words; for initial fluorescence build-up compared with the hydrochloride salt / occurrence of maximum fluorescence compared with the hydrochloride salt / skin fluorescence compared to the hydrochloride salt: topical cream 0.5 mmol/10 g; for initial fluorescence build-up compared with the hydrochloride salt / occurrence of maximum fluorescence compared with the hydrochloride salt: FIG. 2; for skin fluorescence compared to the hydrochloride salt: FIG. 3 and FIG. 4
Protocol: Different salts of 5-amino-4-oxopentanoic acid or of its esters were formulated in Unguentum Merck for dermal studies. All cream formulations contained 0.5 mmol of substance per 10 g cream to ensure the same molar concentration (assuming that 10 g cream equals 10 ml, the approx. molar concentration is 0.5 mmol/10 ml or 50 mM). Preparation of the formulations is outlined in Table 1 below.
(§2) Method: Female Balb/c athymic nude mice, weighing about 22 g, obtained from the Department of Laboratory Animals, The Norwegian Radium Hospital, Oslo, Norway, were used in the study. Each group consisted of three mice.
(§3) Each mouse received 0.05-0.1 g of formulation (see Example 31) topically applied at the right flank of the body, evenly distributed and covered with a dressing (Opsite Flexigrid; Smith and Nephew Medical Ltd., Hull, England).
(§4) The fiber point measuring device used consisted of a bundle of optical fibers connected to a spectrofluorimeter which produced the excitation light of 407 nm. The excitation light, which is capable of penetrating 0.1-0.5 mm into the tissue, was led through half of the fibers to the mouse skin. The resulting emission fluorescence spectrum (550-750) nm was collected and led through the remaining fibers into a photomultiplier for quantification. The fluorescence spectrum from the skin was measured at 0, 2, 4, 6, 8, 10, 12 and 24 hours after administration and plotted against time.

[3] = test system: mouse skin; assay: Skin fluorescence after topical application of cream formulations to nude mice, measured at 636 nm; assay type: in vivo, Female Balb/c athymic nude mice; details: topical cream 0.5 mmol/10 g, fluorescence at 636 nm, in words; for induction of skin fluorescence compared with the hydrochloride salt: FIG. 6 and FIG. 7; for occurrence of maximum fluorescence compared with the hydrochloride salt: FIG. 7
Source text: as §2, §3, §4
Different salts of 5-amino-4-oxopentanoic acid or of its benzylester were formulated in Unguentum Merck for dermal studies. All cream formulations contained 0.5 mmol substance per 10 g cream to assure the same molar concentration. Corrections were made in the case of the 2:1 salts so that the molar concentration of 5-amino-4-oxopentanoic acid or the corresponding ester corresponded to 0.5 mmol/10 g cream. Assuming that 10 g cream equals 10 ml, the approx. molar concentration is 0.5 mmol/10 ml=50 mM. Preparation of the formulations is outlined in Table 2 below.
Preparation of the Formulations is Described in Example 36. The same experimental system as in Example 32 was used, except that the skin fluorescence was measured at 636 nm rather than at 550-750 nm.
Preparation of the Formulations is Described in Example 36. The same experimental system as in Example 37 was used.

[4] = Hygroscopicity: 2 mg samples kept at ambient temperature at ambient or 100 humidity; assay type: physicochemical; details: for deliquescence on storage: ambient temperature and 100 humidity; for change of sample on storage: ambient temperature and ambient humidity for 4 days
Protocol: Samples (2 mg) of the hydrochloride, methanesulfonate, and toluenesulfonate of hexyl 5-amino-4-oxopentanoate were kept at ambient temperature and ambient humidity for 4 days.
Samples (2 mg) of the hydrochloride, methanesulfonate, and toluenesulfonate of hexyl 5-amino-4-oxopentanoate were kept at ambient temperature and 100 humidity.

5-Amino-4-oxopentanoic acid toluenesulfonate
appearance / deliquescence during the test period [1]: did not change appearance during the test period
water uptake as monitored by weight [1]: did not pick up water

Cl.NCC(=O)CCC(=O)O [5-amino-4-oxopentanoic acid hydrochloride, reference compound]
onset of deliquescence [1]: 22.5 h
water uptake as monitored by weight [1]: took up water to a considerable extent

CS(=O)(=O)O.NCC(=O)CCC(=O)O [5-amino-4-oxopentanoic acid methanesulfonate]
maximal skin fluorescence compared with the HCl salt ([2]; topical cream 0.5 mmol/10 g (Unguentum Merck), excitation 407 nm, emission 550-750 nm, 0-24 h, FIG. 1): somewhat higher maximal skin fluorescence than the HCl salt

CS(=O)(=O)O.NCC(=O)CCC(=O)OCc1ccccc1 [Benzyl 5-amino-4-oxopentanoate methanesulfonate]
initial fluorescence build-up compared with the hydrochloride salt [2]: occurred faster
occurrence of maximum fluorescence compared with the hydrochloride salt [2]: occurred faster

COC(=O)CCC(=O)CN.CS(=O)(=O)O [Methyl 5-amino-4-oxopentanoate methanesulfonate]
skin fluorescence compared to the hydrochloride salt ([2]; emission 550-750 nm): a considerable increase in skin fluorescence as compared to the hydrochloride salt
onset of deliquescence [1]: 22 h
water uptake as monitored by weight [1]: took up water to a considerable extent

NCC(=O)CCC(=O)OCc1ccccc1.O=[N+]([O-])O [benzyl 5-amino-4-oxopentanoate nitrate, Benzyl 5-amino-4-oxopentanoate nitrate]
induction of skin fluorescence compared with the hydrochloride salt [3]: more effective in inducing skin fluorescence than the hydrochloride salt

NCC(=O)CCC(=O)OCc1ccccc1.O=P(O)(O)O [benzyl 5-amino-4-oxopentanoate phosphate, Benzyl 5-amino-4-oxopentanoate phosphate]
induction of skin fluorescence compared with the hydrochloride salt [3]: poorer inducers of skin fluorescence than the corresponding hydrochloride salt
occurrence of maximum fluorescence compared with the hydrochloride salt [3]: occurred earlier

CCCCCCOC(=O)CCC(=O)CN.Cl [hexyl 5-amino-4-oxopentanoate hydrochloride, reference compound]
onset of deliquescence [1]: 5.0 h
water uptake as monitored by weight [1]: did not pick up water to a considerable extent
deliquescence on storage [4]: deliquesced after standing overnight
change of sample on storage [4]: No observable change

CCCCCCOC(=O)CCC(=O)CN.CS(=O)(=O)O [hexyl 5-amino-4-oxopentanoate methanesulfonate]
skin fluorescence compared to the hydrochloride salt ([2]; emission 550-750 nm): approx. the same skin fluorescence as the hydrochloride salt
appearance / deliquescence during the test period [1]: deliquescence did not occur
water uptake as monitored by weight [1]: took up water to some extent
deliquescence on storage [4]: deliquesced after two days
change of sample on storage [4]: No observable change

COC(=O)CCC(=O)CN.Cl [methyl 5-amino-4-oxopentanoate hydrochloride, reference compound]
onset of deliquescence [1]: 22 h
water uptake as monitored by weight [1]: took up water to a considerable extent

Benzyl 5-amino-4-oxopentanoate sulfate (2:1)
induction of skin fluorescence compared with the hydrochloride salt [3]: poorer inducers of skin fluorescence than the corresponding hydrochloride salt
occurrence of maximum fluorescence compared with the hydrochloride salt [3]: occurred earlier

Benzyl 5-amino-4-oxopentanoate toluenesulfonate
initial fluorescence build-up compared with the hydrochloride salt [2]: occurred faster
occurrence of maximum fluorescence compared with the hydrochloride salt [2]: occurred faster

Methyl 5-amino-4-oxopentanoate toluenesulfonate
appearance / deliquescence during the test period [1]: did not change appearance during the test period
water uptake as monitored by weight [1]: did not pick up water

hexyl 5-amino-4-oxopentanoate toluenesulfonate
skin fluorescence compared to the hydrochloride salt ([2]; emission 550-750 nm): approx. the same skin fluorescence as the hydrochloride salt
appearance / deliquescence during the test period [1]: did not change appearance during the test period
water uptake as monitored by weight [1]: did not pick up water
deliquescence on storage [4]: deliquesced after four days
change of sample on storage [4]: No observable change
